pKi: −log10 of the molar value.

The assay addresses Endothelin receptor type B (Cavia porcellus). The experiment in a line: Binding affinity towards Endothelin B receptor by measuring its ability to displace [125I]ET-3 from guinea pig cerebellum.

A word on the pKi: it is the Ki on a negative log10 scale, so that one unit is a factor of ten. Higher therefore signals a low Ki. Regarding `CCOc1cc(OCC)nc(OC(C(=O)O)C(OC)(c2ccccc2)c2ccccc2)n1` (centres undefined) [2-(4,6-Diethoxy-pyrimidin-2-yloxy)-3-methoxy-3,3-diphenyl-propionic acid], the negative logarithm of the Ki (pKi) was 5.60. Next, `COc1cc(OC)nc(OC(C(=O)O)C(OC)(c2ccccc2F)c2ccccc2F)n1` (centres undefined) [2-(4,6-Dimethoxy-pyrimidin-2-yloxy)-3,3-bis-(2-fluoro-phenyl)-3-methoxy-propionic acid]: 5.22; `COc1cc(OC)nc(OC(C(=O)O)C(OC)(c2cccc(F)c2)c2cccc(F)c2)n1` (centres undefined) [2-(4,6-Dimethoxy-pyrimidin-2-yloxy)-3,3-bis-(3-fluoro-phenyl)-3-methoxy-propionic acid]: 5.74. Next, `COc1cc(OC)nc(OC(C(=O)O)C(O)(c2ccccc2)c2ccccc2)n1` (centres undefined) [2-(4,6-Dimethoxy-pyrimidin-2-yloxy)-3-hydroxy-3,3-diphenyl-propionic acid]: 5.46. `COc1cc(OC)nc(OC(C(=O)O)C(OC)(c2cccc(C)c2)c2cccc(C)c2)n1` (centres undefined) [2-(4,6-Dimethoxy-pyrimidin-2-yloxy)-3-methoxy-3,3-di-m-tolyl-propionic acid] showed a pKi of 5.89.

The compound `COc1cc(OC)nc(OC(C(=O)O)C(OC)(c2ccc(C)cc2)c2ccc(C)cc2)n1` (centres undefined) [2-(4,6-Dimethoxy-pyrimidin-2-yloxy)-3-methoxy-3,3-di-p-tolyl-propionic acid] gave a pKi of 6.00. Next, `COc1cc(OC)nc(OC(C(=O)O)C(Oc2ccccc2)(c2ccccc2)c2ccccc2)n1` (centres undefined) [2-(4,6-Dimethoxy-pyrimidin-2-yloxy)-3-phenoxy-3,3-diphenyl-propionic acid]: 5.82; `CCc1cc(C)nc(OC(C(=O)O)C(OC)(c2ccccc2)c2ccccc2)n1` (centres undefined) [2-(4-Ethyl-6-methyl-pyrimidin-2-yloxy)-3-methoxy-3,3-diphenyl-propionic acid]: 6.80; `COc1cc(OC)nc(OC(C(=O)O)C(OC)(c2ccc(Cl)cc2)c2ccc(Cl)cc2)n1` (centres undefined) [3,3-Bis-(4-chloro-phenyl)-2-(4,6-dimethoxy-pyrimidin-2-yloxy)-3-methoxy-propionic acid]: 5.89.

For the origin of these results see BindingDB's records for doi:10.1021/jm960274q (Basf, 1996).
